Assay results taken from ChEMBL document CHEMBL4270599, “Synthesis of a 3'-C-ethynyl-β-d-ribofuranose purine nucleoside library: Discovery of C7-deazapurine analogs as potent antiproliferative nucleosides” (Eur J Med Chem, 2018).

How the values were obtained:
Type in all cases: functional
NCI-H23 [1] = experiment: Cytotoxicity against human NCI-H23 cells after 48 hrs by SRB assay; conditions: NCI-H23, 48 h; for GI50: read-out: GI50; for TGI: read-out: TGI; for CC50: read-out: pLC50 (the source's name) (converted)
MDA-MB-468 = experiment: Cytotoxicity against human MDA-MB-468 cells after 48 hrs by SRB assay; conditions: MDA-MB-468, 48 h; for GI50: read-out: GI50; for TGI: read-out: TGI; for CC50: read-out: pLC50 (the source's name) (converted)
COLO 205 = experiment: Growth inhibition of human COLO205 cells assessed as cell growth at 10^-8 M incubated for 48 hrs by sulforhodamine B assay relative to control; conditions: COLO 205, 48 h, read-out: Activity
NCI-H226 [2] = experiment: Growth inhibition of human NCI-H226 cells assessed as cell growth at 10^-6 M incubated for 48 hrs by sulforhodamine B assay relative to control; conditions: NCI-H226, 48 h, read-out: Activity
A498 = experiment: Cytotoxicity against human A498 cells after 48 hrs by SRB assay; conditions: A498, 48 h; for GI50: read-out: GI50; for CC50: read-out: LC50 (the source's name); for TGI: read-out: TGI
NCI-H23 [3] = experiment: Growth inhibition of human NCI-H23 cells assessed as cell growth at 10^-8 M incubated for 48 hrs by sulforhodamine B assay relative to control; conditions: NCI-H23, 48 h, read-out: Activity
BT-549 = experiment: Cytotoxicity against human BT549 cells after 48 hrs by SRB assay; conditions: BT-549, 48 h; for GI50: read-out: GI50; for TGI: read-out: TGI
IGROV-1 = experiment: Cytotoxicity against human IGROV1 cells after 48 hrs by SRB assay; conditions: IGROV-1, 48 h; for GI50: read-out: GI50
PC-3 = experiment: Growth inhibition of human PC3 cells assessed as cell growth at 10^-8 M incubated for 48 hrs by sulforhodamine B assay relative to control; conditions: PC-3, 48 h, read-out: Activity
SK-MEL-28 [4] = experiment: Cytotoxicity against human SK-MEL-28 cells after 48 hrs by SRB assay; conditions: SK-MEL-28, 48 h; for GI50: read-out: GI50; for TGI: read-out: TGI
SR = experiment: Growth inhibition of human SR cells assessed as cell growth at 10^-6 M incubated for 48 hrs by sulforhodamine B assay relative to control; conditions: read-out: Activity
MCF7 [5] = experiment: Growth inhibition of human MCF7 cells assessed as cell growth at 10^-7 M incubated for 48 hrs by sulforhodamine B assay relative to control; conditions: MCF7, 48 h, read-out: Activity
RPMI-8226 = experiment: Cytotoxicity against human RPMI8226 cells after 48 hrs by SRB assay; conditions: RPMI-8226, 48 h; for GI50: read-out: GI50; for CC50: read-out: LC50 (the source's name); for TGI: read-out: TGI
NCI/ADR-RES = experiment: Growth inhibition of human NCI/ADR-RES cells assessed as cell growth at 10^-7 M incubated for 48 hrs by sulforhodamine B assay relative to control; conditions: read-out: Activity
MCF7 [6] = experiment: Growth inhibition of human MCF7 cells assessed as cell growth at 10^-6 M incubated for 48 hrs by sulforhodamine B assay relative to control; conditions: MCF7, 48 h, read-out: Activity
NCI-H522 = experiment: Growth inhibition of human NCI-H522 cells assessed as cell growth at 10^-7 M incubated for 48 hrs by sulforhodamine B assay relative to control; conditions: NCI-H522, 48 h, read-out: Activity
RXF 393 = experiment: Cytotoxicity against human RXF393 cells after 48 hrs by SRB assay; conditions: RXF 393, 48 h; for GI50: read-out: GI50; for TGI: read-out: TGI
TK-10 = experiment: Growth inhibition of human TK10 cells assessed as cell growth at 10^-5 M incubated for 48 hrs by sulforhodamine B assay relative to control; conditions: TK-10, 48 h, read-out: Activity
MDA-MB-435 = experiment: Growth inhibition of human MDA-MB-435 cells assessed as cell growth at 10^-8 M incubated for 48 hrs by sulforhodamine B assay relative to control; conditions: MDA-MB-435, 48 h, read-out: Activity
LOX IMVI = experiment: Growth inhibition of human LOXIMVI cells assessed as cell growth at 10^-7 M incubated for 48 hrs by sulforhodamine B assay relative to control; conditions: read-out: Activity
HOP-62 = experiment: Growth inhibition of human HOP62 cells assessed as cell growth at 10^-8 M incubated for 48 hrs by sulforhodamine B assay relative to control; conditions: HOP-62, 48 h, read-out: Activity
M14 = experiment: Cytotoxicity against human M14 cells after 48 hrs by SRB assay; conditions: M14, 48 h; for GI50: read-out: GI50; for CC50: read-out: LC50 (the source's name); for TGI: read-out: TGI
HCC 2998 = experiment: Growth inhibition of human HCC2998 cells assessed as cell growth at 10^-7 M incubated for 48 hrs by sulforhodamine B assay relative to control; conditions: HCC 2998, 48 h, read-out: Activity
SK-MEL-28 [7] = experiment: Growth inhibition of human SK-MEL-28 cells assessed as cell growth at 10^-5 M incubated for 48 hrs by sulforhodamine B assay relative to control; conditions: SK-MEL-28, 48 h, read-out: Activity
Malme-3M = experiment: Growth inhibition of human MALME-3M cells assessed as cell growth at 10^-7 M incubated for 48 hrs by sulforhodamine B assay relative to control; conditions: read-out: Activity
OVCAR-5 = experiment: Growth inhibition of human OVCAR5 cells assessed as cell growth at 10^-8 M incubated for 48 hrs by sulforhodamine B assay relative to control; conditions: OVCAR-5, 48 h, read-out: Activity
NCI-H226 [8] = experiment: Cytotoxicity against human NCI-H226 cells after 48 hrs by SRB assay; conditions: NCI-H226, 48 h; for GI50: read-out: GI50; for TGI: read-out: TGI
Hs-578T = experiment: Growth inhibition of human Hs 578T cells assessed as cell growth at 10^-6 M incubated for 48 hrs by sulforhodamine B assay relative to control; conditions: read-out: Activity
SNB-75 = experiment: Growth inhibition of human SNB75 cells assessed as cell growth at 10^-7 M incubated for 48 hrs by sulforhodamine B assay relative to control; conditions: SNB-75, 48 h, read-out: Activity
[9] = read-out: LC50 (the source's name)
[10] = read-out: pLC50 (the source's name) (converted)

C#C[C@@]1(O)[C@@H](CO)O[C@@H](n2cc(Br)c3c(N)ncnc32)[C@@H]1O
GI50 (NCI-H23 [1]): 162 to 225 nM | TGI (NCI-H23 [1]): 1930 to 4210 nM | CC50 (NCI-H23 [1]): > 100 µM | GI50 (MDA-MB-468): 115 to 219 nM | TGI (MDA-MB-468): 352 to 637 nM | CC50 (MDA-MB-468): 1910 nM | growth at 0.01 µM (COLO 205): 95 to 97% | growth at 1 µM (NCI-H226 [2]): 27 to 66% | GI50 (A498): 185 to 280 nM | CC50 (A498): 940 to 4210 nM | TGI (A498): 417 to 828 nM | growth at 0.01 µM (NCI-H23 [3]): 90 to 91% | GI50 (BT-549): 147 to 234 nM | CC50 (BT-549; [9]): > 100 µM | TGI (BT-549): 536 to 819 nM | GI50 (IGROV-1): 27.8 to 69.9 nM | TGI (IGROV-1; read-out: TGI): 485 nM | CC50 (IGROV-1; [10]): > 100 µM | TGI (IGROV-1; read-out: pTGI (converted)): 490 nM | growth at 0.01 µM (PC-3): 86 to 92% | GI50 (SK-MEL-28 [4]): 3050 to 4370 nM | CC50 (SK-MEL-28 [4]; [9]): > 100 µM | TGI (SK-MEL-28 [4]): 30.2 to 48.1 µM | growth at 1 µM (SR): 7 to 9% | growth at 0.1 µM (MCF7 [5]): 12 to 25% | GI50 (RPMI-8226): 67.3 to 242 nM | CC50 (RPMI-8226): > 100 µM | TGI (RPMI-8226): 733 to 934 nM | growth at 0.1 µM (NCI/ADR-RES): 34 to 41% | growth at 1 µM (MCF7 [6]): 3 to 5% | growth at 0.1 µM (NCI-H522): 38 to 67% | GI50 (RXF 393): 205 to 479 nM | CC50 (RXF 393; [9]): > 100 µM | TGI (RXF 393): 653 to 2290 nM | growth at 10 µM (TK-10): 12% | growth at 0.01 µM (MDA-MB-435): 89 to 92% | growth at 0.1 µM (LOX IMVI): 20 to 52% | growth at 0.01 µM (HOP-62): 92 to 100% | GI50 (M14): 145 to 353 nM | CC50 (M14): 75.3 to 100 µM | TGI (M14): 12.9 to 14.2 µM | growth at 0.1 µM (HCC 2998): 73 to 80% | growth at 10 µM (SK-MEL-28 [7]): 38 to 40% | growth at 0.1 µM (Malme-3M): 77 to 79% | growth at 0.01 µM (OVCAR-5): 98 to 99% | GI50 (NCI-H226 [8]): 373 to 4420 nM | TGI (NCI-H226 [8]): 6.37 to 100 µM | CC50 (NCI-H226 [8]; [10]): > 100 µM | growth at 1 µM (Hs-578T): 6 to 57% | growth at 0.1 µM (SNB-75): 81 to 96%

C#C[C@@]1(O)[C@@H](CO)O[C@@H](n2cc(Cl)c3c(N)ncnc32)[C@@H]1O
GI50 (NCI-H23 [1]): 173 to 213 nM | TGI (NCI-H23 [1]): 716 to 1280 nM | CC50 (NCI-H23 [1]): > 100 µM | GI50 (MDA-MB-468): 180 to 243 nM | TGI (MDA-MB-468): 451 to 751 nM | CC50 (MDA-MB-468): 2090 nM | growth at 0.01 µM (COLO 205): 93 to 96% | GI50 (A498): 225 to 334 nM | CC50 (A498): 842 to 5620 nM | TGI (A498): 435 to 1000 nM | growth at 0.01 µM (NCI-H23 [3]): 88 to 89% | GI50 (BT-549): 223 to 228 nM | TGI (BT-549): 640 to 685 nM | GI50 (IGROV-1): 123 to 145 nM | CC50 (IGROV-1; [9]): > 100 µM | TGI (IGROV-1; read-out: TGI): 475 nM | TGI (IGROV-1; read-out: pTGI (converted)): 479 nM | growth at 0.01 µM (PC-3): 91 to 94% | GI50 (SK-MEL-28 [4]): 469 to 706 nM | TGI (SK-MEL-28 [4]): 57.1 to 89.4 µM | CC50 (SK-MEL-28 [4]; [10]): > 100 µM | growth at 1 µM (SR): 5 to 6% | growth at 0.1 µM (MCF7 [5]): 17 to 25% | GI50 (RPMI-8226): 144 to 159 nM | CC50 (RPMI-8226): > 100 µM | TGI (RPMI-8226): 521 to 708 nM | growth at 0.1 µM (NCI/ADR-RES): 37 to 40% | growth at 1 µM (MCF7 [6]): 1 to 4% | growth at 0.1 µM (NCI-H522): 47 to 62% | GI50 (RXF 393): 299 to 485 nM | TGI (RXF 393): 813 to 2010 nM | CC50 (RXF 393; [10]): > 100 µM | growth at 0.01 µM (MDA-MB-435): 88 to 89% | growth at 0.1 µM (LOX IMVI): 34 to 47% | growth at 0.01 µM (HOP-62): 88 to 90% | GI50 (M14): 157 to 200 nM | CC50 (M14): > 100 µM | TGI (M14): 0.52 to 0.659 µM | growth at 0.1 µM (HCC 2998): 79 to 80% | growth at 10 µM (SK-MEL-28 [7]): 44 to 45% | growth at 0.1 µM (Malme-3M): 79 to 80% | growth at 0.01 µM (OVCAR-5): 95 to 97% | GI50 (NCI-H226 [8]): 308 to 837 nM | CC50 (NCI-H226 [8]; [9]): > 100 µM | TGI (NCI-H226 [8]): 0.901 to 100 µM | growth at 1 µM (Hs-578T): 25 to 77% | growth at 0.1 µM (SNB-75): 104 to 110%
